Reference: article PMC4841536, “Characterization of the Anti-HCV Activities of the New Cyclophilin Inhibitor STG-175” (PLoS ONE, 2016)
Several values for one entry are separate records, joined by “and”; a condition that tells them apart may be missing. Equal values may be shown once. Read-outs that look alike come from different tables or passages of the source.

Key:
[1] = tested on: subgenomic Con1 (GT1b) replicon in Huh-7 cells; format: cell-based, hepatitis C virus; conditions: for passage at which resistant variants emerged (CypI comparison): Fig 3C; for passages until development of HCV resistance, DAA alone ("instead of" comparison): compared with combination
Method: Huh-7 cell expressing subgenomic Con1 (GT1b) replicon were seeded in a 10 cm dish at a density of 3 × 10^5 cells per culture flask in complete DMEM (with G418) with STG-175 or selected drugs. Cells were grown until they reached 90% confluence, trypsinized and re-seeded at the same cell concentration in a new 10-cm dish with the same drug concentration. Cells were passaged 22 times in the presence of drugs. At each passage, sample of cells were collected, RNA extracted according to the manufacturer's instructions and analyzed by RT-PCR for HCV RNA levels.
(§1) Fig 3 Replicon clearance, replication rebound and resistance analyses. […] Then drugs were removed to allow viral replication rebound to occur. At each passage, samples of cells were collected, RNA extracted and analyzed by RT-PCR for HCV RNA levels. B. Emergence of resistance: Con1 replicon Huh-7 cells were passaged 22 times in the absence or presence of STG-175 or selected DAAs. At each passage, sample of cells were collected, RNA extracted and analyzed by RT-PCR for HCV RNA levels. C. […] Data are expressed as number of HCV RNA copies per cell. […] Data are expressed as mean of relative light units and calculated EC50s are presented. […] E. Degree of resistance of D320E and Y321N Con1 variants: Left panel. Wild-type (WT), D320E and D320/Y321N NS5A Con1 RNA were electroporated into Huh7.5.1 cells and replication monitored over 8 days by quantifying the levels of intracellular HCV RNA. Right panel. Same as just above except that increasing concentrations of STG-175 were added at the time of the electroporation. […] STG-175 is taken as the substance from the printed x-axis title 'STG-175 in Log nM'.
We then examined the development of resistance to STG-175. GT1b Con1 sub-genomic replicon cells were grown in the presence of STG-175 (0.25 and 1 μM), telaprevir (2.5 and 10 μM), boceprevir (2.5 and 10 μM), daclatasvir 100 pM and 1 nM) or a combination of STG-175 (0.25 μM) with either telaprevir (2.5 μM), boceprevir (2.5 μM) or daclatasvir (100 pM) for 22 successive passages. At each passage, fresh drug was added and a sample of cells was taken to quantify HCV RNA levels by RT-qPCR.

[2] = tested on: IL-2 promoter activation in Jurkat T-cell line; test: In vitro assay for immunosuppression: IL-2 promoter activation in engineered Jurkat T-cell line (betagalactosidase); format: cell-based; conditions: Homo sapiens; Jurkat cells activated with PMA 10 ng/mL, 24 h; read-out: IC50, inhibition of IL-2 production (immunosuppressive activity)
Method: IL-2 promoter activation upon T-cell stimulation was determined using an engineered Jurkat T-cell line, which expresses betagalactosidase when exposed to chemical non-specific factors like […] (PMA) and phytohematogglutinin (PHA) as described previously. DMSO or STG-175 were added together with PMA (10 ng/mL) to 1 million of Jurkat cells (triplicates). Betagalactosidase activity in cell lysates was quantified by fluorescence (460 nm) after 24 h.
(§2) Fig 1 Anti-PPIase and immunosuppressive activities of STG-175. A. Structures of cyclophilin inhibitors. Inhibition of CypA (B) and CypD (C) isomerase activities were assessed using the α-chymotrypsin-coupled assay. Each test compound was prepared at 10 concentrations (0.05–1000 nM). All solutions were equilibrated, and reactions conducted at 5°C. Reactions were initiated by mixing 95 μL reaction mix with 5 μL of the peptide to be cleaved and measuring OD405 nm at 6-sec intervals for 6 min. Data were fitted with Graphpad Prism 6.0 to obtain first-order rate constants. Enzyme catalyzed rate constants were calculated by subtracting the rate constant from uncatalyzed reactions (no CypA/D), and catalytic rate constants plotted as a function of inhibitor concentration to obtain IC50s. […] D. IL-2 promoter activation upon T-cell stimulation was determined using an engineered Jurkat T-cell line, which expresses betagalactosidase. Jurkat cells (1 million) were activated with PMA (10 ng/mL). […] The Y-axis values are expressed as percentage of activity. Data expressed as EC50s are representative of two independent experiments.
The formation of this trimolecular complex inhibits T cell proliferation by blocking the signaling pathway leading to IL-2 production upon T-cell stimulation. The immunosuppressive activity of STG-175 was evaluated by inhibition of the IL-2 production in Jurkat cells.

Human recombinant CypD = target: T1, Human recombinant CypD (Homo sapiens, UniProt P30405); test: α-chymotrypsin-coupled PPIase assay, CypD isomerase activity; format: biochemical; conditions: 5°C, 10 concentrations 0.05–1000 nM
T1 construct: purchased Atgen
Method: (§3) Inhibition of CypA and CypD isomerase activities were quantified using a α-chymotrypsin-coupled assay adapted to a 96-well plate format. Human recombinant CypA or CypD (Atgen) was dissolved to 10 nM in PPIases buffer (50 mM Hepes, 100 mM NaCl, 1 mg/ml bovine serum albumin, 1 mg/ml α-chymotrypsin; pH 8). Succinyl-AAPF-pNA peptide substrate (Sigma) was dissolved to 3.2 mM in LiCl/trifluoroethanol. Each CypI was prepared at 10 concentrations in DMSO, then diluted into CypA/D PPIase buffer to 0.05–1000 nM. Incubations were performed at 5°C. Ninety five μL of reaction mix was added to 5 μL peptide in 96-wells and OD405 nm measured at 6-sec intervals for 6 min using a Biotek Synergy H4 plate reader. Data were fitted with Graphpad Prism 6.0 to acquire first-order rate constants, which were calculated by subtracting the rate constant from uncatalyzed reactions (no CypA/D). The catalytic rate constants were plotted as a function of inhibitor concentration to obtain IC50s.
(§4) The inhibition of the isomerase activities of CypA and CypD were measured with 10 increasing concentrations of STG-175 to quantify IC50 values.
as §2, with “Data were fitted with Graphpad Prism 6.0 to obtain first-order rate constants.” left out, “betagalactosidase.” for “betagalactosidase. Jurkat cells (1 million) were activated with PMA (10 ng/mL).”

Human recombinant CypA = target: T2, Human recombinant CypA (Homo sapiens, UniProt P62937); test: α-chymotrypsin-coupled PPIase assay, CypA isomerase activity; format: biochemical; conditions: 5°C, 10 concentrations 0.05–1000 nM; read-out: IC50, neutralization of the isomerase activity of CypA
T2 construct: purchased Atgen
Method: as §3, with “The catalytic rate constants were plotted as a function of inhibitor concentration to obtain IC50s.” left out
as §4
Fig 1 Anti-PPIase and immunosuppressive activities of STG-175. […] Inhibition of CypA (B) and CypD (C) isomerase activities were assessed using the α-chymotrypsin-coupled assay. […] D. IL-2 promoter activation upon T-cell stimulation was determined using an engineered Jurkat T-cell line, which expresses betagalactosidase. […] The Y-axis values are expressed as percentage of activity. […]

[3] = tested on: wild-type Con1 GT1b replicon; test: Electroporated Con1 RNA replication in Huh7.5.1 cells (RT-qPCR), wild-type; format: cell-based; conditions: Hepatitis C virus
From the text: (§5) The GT1b subgenomic firefly luciferase reporter replicon pFK-I389/NS3–3 was provided by R. Bartenschlager. The GT1B subgenomic NS3, NS5A and NS5B mutants were created via homologous recombination using the In-Fusion HD Cloning kit (Clontech) as we described previously. […] The in vitro transcription of wild-type and mutant Con1 RNA was accomplished using the T7 MEGAscript kit (Ambion) by following the manufacturer’s instructions. In vitro-transcribed RNAs were introduced into Huh7.5.1 cells by electroporation. Trypsinized cells were washed twice and resuspended in phosphate-buffered saline (PBS) (calcium-free and magnesium-free) at 1x 10^7 cells per ml. Ten micrograms of RNA for each mutant was mixed with 0.4 mL of cells in a 4-mm cuvette, and a Bio-Rad Gene Pulser system was used to deliver a single pulse at 0.27 kV, 100 ohms, and 960 μF. Cells were then plated in 12-well dishes. RNA transfection efficiency and HCV subgenomic replication were assessed by reverse transcription-quantitative PCR (RT-qPCR) and presented as genome equivalents (GE) per microgram of total RNA as described previously. We measured by RT-qPCR the replication of wild-type, STG-175-, NS5Ai-, NS3i- and NS5Bi-resistant mutants in the presence of increasing concentrations of SGT-175, daclatasvir, telaprevir, boceprevir and sofosbuvir over a period of 8 days.
as §1
To determine whether the D320E and Y321N substitutions truly render HCV resistant to STG-175, they were introduced into wild-type Con1 replicon as we described previously. Introduction of the substitutions was verified by sequencing. In vitro-transcribed wild-type, D320E and D320E/Y321N HCV RNAs were then electroporated into Huh7.5.1 cells and viral replication assessed by RT-qPCR and presented as GE per microgram of total RNA as we described previously. […] We then analyzed the replication of wild-type, D320E and D320E/Y321N in the presence of increasing concentrations of SGT-175 over a period of 8 days.
Fig 5 Cross-resistance analyses.

[4] = tested on: HCV GT4a subgenomic replicon ED43/SG-Feo; set-up: method as in PMID 24687498; conditions: cited from earlier work
[5] = tested on: D320E/Y321N NS5A Con1 GT1b replicon; test: microbe, parasite or virus in culture; format: cell-based, hepatitis C virus; conditions: Hepatitis C virus, GT1B
From the text: as §5
(§6) D320E and D320E/Y321N NS5A substitutions were introduced into wild-type Con1 GT1 replicon as we described previously. Con1-NS5A-D320E, and Con1-NS5A-D320E/Y321N were generated using the following forward and reverse phosphorylated (p) primer sets, respectively: (p)[…] and (p)[…], and (p)[…] and (p)[…]. PCR products were circularized with Quick T4 DNA ligase (NEB) for 5 min and transformed into NEB 10-beta competent cells. The NS5A gene was sequenced to confirm the introduced substitutions.
as §1
(§7) To determine whether the D320E and Y321N substitutions truly render HCV resistant to STG-175, they were introduced into wild-type Con1 replicon as we described previously. Introduction of the substitutions was verified by sequencing.

[6] = tested on: D320E NS5A Con1 GT1b replicon; test: microbe, parasite or virus in culture; format: cell-based, hepatitis C virus; conditions: Hepatitis C virus, GT1B
From the text: as §5, §6, §1, §7

[7] = Huh-7.5.1, 192 h, read-out: EC50 GT1b WT
[8] = Huh-7.5.1, 192 h, read-out: EC50 D320E/Y321N NS5A
[9] = Huh-7.5.1, 192 h, read-out: EC50 D320E NS5A

T1 sequence (P30405 30-207): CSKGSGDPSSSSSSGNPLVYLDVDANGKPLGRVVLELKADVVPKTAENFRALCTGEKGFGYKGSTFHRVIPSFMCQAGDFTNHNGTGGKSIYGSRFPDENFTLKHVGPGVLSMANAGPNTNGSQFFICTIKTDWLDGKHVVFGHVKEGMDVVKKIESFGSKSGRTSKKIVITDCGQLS
T2 sequence (P62937 whole entry): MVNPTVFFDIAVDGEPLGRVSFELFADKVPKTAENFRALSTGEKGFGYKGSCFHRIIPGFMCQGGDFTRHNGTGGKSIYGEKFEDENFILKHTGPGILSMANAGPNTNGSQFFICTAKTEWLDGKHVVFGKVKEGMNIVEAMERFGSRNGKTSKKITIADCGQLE

Row | SMILES | IC50 [2] | passage at which resistance began ([1]; 2.5 μM) | passage at which resistance began ([1]; 10 μM) | passages until development of HCV resistance, DAA alone ("instead of" comparison) [1] | EC50 [3, 7] | EC50 [5, 8] | EC50 [6, 9] | further results
1 | C/C=C/C[C@@H](C)[C@@H](O)[C@H]1C(=O)N[C@@H](CC)C(=O)N(C)[C@H](C)C(=O)N(CC)[C@@H](C(C)C)C(=O)N[C@@H](C(C)C)C(=O)N(C)[C@@H](CC(C)C)C(=O)N[C@@H](C)C(=O)N[C@H](C)C(=O)N(C)[C@@H](CC(C)C)C(=O)N(C)[C@@H](CC(C)C)C(=O)N(C)[C@@H](C(C)C)C(=O)N1C [ALV, alisporivir] | 85.7 nM |  |  |  |  |  |  | passage at which resistant variants emerged (CypI comparison) ([1]; 0.25 μM of drug selection): 15 passage; passage at which resistance began ([1]; 1 μM drug pressure, first account (Fig 3B)): 16 passage; passage at which resistant variants emerged (CypI comparison) ([1]; 1 μM of drug selection): 17 passage; IC50 (Human recombinant CypD; read-out: IC50, neutralization of the isomerase activity of CypD): 3.4 nM; IC50 (Human recombinant CypA): 1.7 nM
2 | C/C=C/C[C@@H](C)[C@@H](O)[C@H]1C(=O)N[C@@H](CC)C(=O)N(C)[C@H](SCCN(C)C)C(=O)N(C)[C@@H](CC(C)(C)O)C(=O)N[C@@H](C(C)C)C(=O)N(C)[C@@H](CC(C)C)C(=O)N[C@@H](C)C(=O)N[C@H](C)C(=O)N(C)[C@@H](CC(C)C)C(=O)N(C)[C@@H](CC(C)C)C(=O)N(C)[C@@H](C(C)C)C(=O)N1C [SCY-635] | 38.6 nM |  |  |  |  |  |  | IC50 (Human recombinant CypD; IC50, neutralization of the isomerase activity of CypD): 7.1 nM and 7.2 nM
3 | CC(C)(C)NC(=O)N[C@H](C(=O)N1C[C@H]2[C@@H]([C@H]1C(=O)NC(CC1CCC1)C(=O)C(N)=O)C2(C)C)C(C)(C)C (stereo partly drawn) [boceprevir] |  | 7 passage | 10 passage | 7 passages | 138 nM | 129 nM | 92.7 nM | activity against GT4a [4]: inactive
4 | COC(=O)N[C@H](C(=O)N1CCC[C@H]1c1nc(-c2ccc(-c3ccc(-c4c[nH]c([C@@H]5CCCN5C(=O)[C@@H](NC(=O)OC)C(C)C)n4)cc3)cc2)c[nH]1)C(C)C [daclatasvir] |  |  |  | 4 passages |  |  |  | passage at which resistance began ([1]; 100 pM): 4 passage; passage at which resistance began ([1]; 1 nM): 5 passage; EC50 ([3]; Huh-7.5.1, read-out: EC50 wild-type replicon): 0.043 nM; EC50 ([5]; Huh-7.5.1, read-out: EC50 D320E/Y321N replicon): 0.039 nM; EC50 ([6]; Huh-7.5.1, read-out: EC50 D320E replicon): 0.032 nM
5 | CC(C)OC(=O)[C@H](C)N[P@](=O)(OC[C@H]1O[C@@H](n2ccc(=O)[nH]c2=O)[C@](C)(F)[C@@H]1O)Oc1ccccc1 [sofosbuvir, reference compound] |  |  |  |  | 177 nM | 111 nM | 120 nM | 
6 | CCC[C@H](NC(=O)[C@@H]1[C@H]2CCC[C@H]2CN1C(=O)[C@@H](NC(=O)[C@@H](NC(=O)c1cnccn1)C1CCCCC1)C(C)(C)C)C(=O)C(=O)NC1CC1 [telaprevir] |  | 7 passage | 10 passage | 6 passages | 290 nM | 314 nM | 230 nM | 
